Experiments:
Assay in all cases: relative viability (nuclei count vs DMSO), 5 days (fraction); higher = more cells survive
[1] = tested on: COR-L23
How it was run: (§1)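 One day after seeding in 1536-well plates, lung cancer cell lines were dosed by pin tool. Dosing was either single-drug or a fixed anchor-drug dose plus five library-drug doses (not always all listed) in √10 steps. After 5 days, nuclei were stained in one fix-and-stain step and counted on 4× images, and relative viability is the nuclei count of treated wells over that of vehicle wells, given as the median of duplicate plates.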

[2] = tested on: NCI-H650
How it was run: as §1

[3] = tested on: EMC-BAC-2
How it was run: as §1

[4] = tested on: NCI-H1793
How it was run: as §1

[5] = tested on: HCC-366
How it was run: as §1

[6] = tested on: NCI-H2347
How it was run: as §1

[7] = tested on: NCI-H2009
How it was run: as §1

[8] = tested on: NCI-H1395
How it was run: as §1

[9] = tested on: NCI-H1755
How it was run: as §1

[10] = tested on: NCI-H1437
How it was run: as §1

[11] = tested on: NCI-H23
How it was run: as §1

[12] = tested on: SK-MES-1
How it was run: as §1

[13] = tested on: NCI-H2342
How it was run: as §1

[14] = tested on: NCI-H358
How it was run: as §1

[15] = tested on: LC-2-ad
How it was run: as §1

[16] = tested on: 201T
How it was run: as §1

[17] = tested on: COR-L 105
How it was run: as §1

[18] = tested on: NCI-H2023
How it was run: as §1

[19] = tested on: NCI-H1915
How it was run: as §1

[20] = tested on: HCC-15
How it was run: as §1

[21] = tested on: PC-14
How it was run: as §1

Cc1csc(=NC2CCCCC2)n1/N=C/c1ccc(O)c(O)c1O [MIM1] + O=C(CCCCCCC(=O)Nc1ccccc1)NO [Vorinostat] (partner 1 µM)
relative viability ([1]; first compound 0.2 µM): 0.42 | relative viability ([1]; first compound 0.6325 µM): 0.441 | relative viability ([1]; first compound 2 µM): 0.371 | relative viability ([1]; first compound 6.325 µM): 0.314 | relative viability ([1]; first compound 20 µM): 0.162 | relative viability ([2]; first compound 0.2 µM): 0.481 | relative viability ([2]; first compound 0.6325 µM): 0.257 | relative viability ([2]; first compound 2 µM): 0.402 | relative viability ([2]; first compound 6.325 µM): 0.414 | relative viability ([2]; first compound 20 µM): 0.116 | relative viability ([3]; first compound 0.2 µM): 0.492 | relative viability ([3]; first compound 0.6325 µM): 0.302 | relative viability ([3]; first compound 2 µM): 0.404 | relative viability ([3]; first compound 6.325 µM): 0.313 | relative viability ([3]; first compound 20 µM): 0.157 | relative viability ([4]; first compound 0.2 µM): 0.783 | relative viability ([4]; first compound 2 µM): 0.732 | relative viability ([4]; first compound 6.325 µM): 0.649 | relative viability ([4]; first compound 20 µM): 0.553 | relative viability ([5]; first compound 0.2 µM): 0.33 | relative viability ([5]; first compound 2 µM): 0.243 | relative viability ([5]; first compound 6.325 µM): 0.0699 | relative viability ([5]; first compound 20 µM): 0.0271 | relative viability ([6]; first compound 0.2 µM): 0.68 | relative viability ([6]; first compound 0.6325 µM): 0.643 | relative viability ([6]; first compound 2 µM): 0.652 | relative viability ([6]; first compound 6.325 µM): 0.449 | relative viability ([6]; first compound 20 µM): 0.315 | relative viability ([7]; first compound 0.2 µM): 0.717 | relative viability ([7]; first compound 0.6325 µM): 0.713 | relative viability ([7]; first compound 2 µM): 0.685 | relative viability ([7]; first compound 6.325 µM): 0.506 | relative viability ([7]; first compound 20 µM): 0.372 | relative viability ([8]; first compound 0.2 µM): 0.799 | relative viability ([8]; first compound 0.6325 µM): 0.626 | relative viability ([8]; first compound 2 µM): 0.641 | relative viability ([8]; first compound 6.325 µM): 0.422 | relative viability ([8]; first compound 20 µM): 0.322 | relative viability ([9]; first compound 0.2 µM): 0.708 | relative viability ([9]; first compound 0.6325 µM): 0.65 | relative viability ([9]; first compound 2 µM): 0.792 | relative viability ([9]; first compound 6.325 µM): 0.671 | relative viability ([9]; first compound 20 µM): 0.296 | relative viability ([10]; first compound 0.2 µM): 0.712 | relative viability ([10]; first compound 0.6325 µM): 0.843 | relative viability ([10]; first compound 2 µM): 0.833 | relative viability ([10]; first compound 6.325 µM): 0.313 | relative viability ([10]; first compound 20 µM): 0.197 | relative viability ([11]; first compound 0.2 µM): 0.55 | relative viability ([11]; first compound 0.6325 µM): 0.277 | relative viability ([11]; first compound 2 µM): 0.478 | relative viability ([11]; first compound 6.325 µM): 0.19 | relative viability ([11]; first compound 20 µM): 0.123 | relative viability ([12]; first compound 0.2 µM): 1.02 | relative viability ([12]; first compound 0.6325 µM): 0.953 | relative viability ([12]; first compound 2 µM): 0.959 | relative viability ([12]; first compound 6.325 µM): 0.594 | relative viability ([12]; first compound 20 µM): 0.2 | relative viability ([13]; first compound 0.2 µM): 0.727 | relative viability ([13]; first compound 0.6325 µM): 0.719 | relative viability ([13]; first compound 2 µM): 0.774 | relative viability ([13]; first compound 6.325 µM): 0.589 | relative viability ([13]; first compound 20 µM): 0.905 | relative viability ([14]; first compound 0.2 µM): 0.741 | relative viability ([14]; first compound 0.6325 µM): 0.628 | relative viability ([14]; first compound 2 µM): 0.678 | relative viability ([14]; first compound 6.325 µM): 0.235 | relative viability ([14]; first compound 20 µM): 0.169 | relative viability ([15]; first compound 0.2 µM): 0.698 | relative viability ([15]; first compound 0.6325 µM): 0.306 | relative viability ([15]; first compound 2 µM): 0.777 | relative viability ([15]; first compound 6.325 µM): 0.267 | relative viability ([15]; first compound 20 µM): 0.204 | relative viability ([16]; first compound 0.2 µM): 0.974 | relative viability ([16]; first compound 0.6325 µM): 0.952 | relative viability ([16]; first compound 2 µM): 0.935 | relative viability ([16]; first compound 6.325 µM): 0.528 | relative viability ([16]; first compound 20 µM): 0.3 | relative viability ([17]; first compound 0.2 µM): 0.809 | relative viability ([17]; first compound 0.6325 µM): 0.821 | relative viability ([17]; first compound 2 µM): 0.774 | relative viability ([17]; first compound 6.325 µM): 0.731 | relative viability ([17]; first compound 20 µM): 0.616 | relative viability ([18]; first compound 0.2 µM): 0.55 | relative viability ([18]; first compound 0.6325 µM): 0.58 | relative viability ([18]; first compound 2 µM): 0.391 | relative viability ([18]; first compound 6.325 µM): 0.194 | relative viability ([18]; first compound 20 µM): 0.0736 | relative viability ([19]; first compound 0.2 µM): 0.527 | relative viability ([19]; first compound 0.6325 µM): 0.429 | relative viability ([19]; first compound 2 µM): 0.442 | relative viability ([19]; first compound 6.325 µM): 0.343 | relative viability ([19]; first compound 20 µM): 0.17 | relative viability ([20]; first compound 0.2 µM): 0.789 | relative viability ([20]; first compound 0.6325 µM): 0.81 | relative viability ([20]; first compound 2 µM): 0.87 | relative viability ([20]; first compound 6.325 µM): 0.49 | relative viability ([20]; first compound 20 µM): 0.167 | relative viability ([21]; first compound 0.2 µM): 0.746 | relative viability ([21]; first compound 0.6325 µM): 0.616 | relative viability ([21]; first compound 2 µM): 0.478 | relative viability ([21]; first compound 6.325 µM): 0.456 | relative viability ([21]; first compound 20 µM): 0.118

— the supplement of paper PMC10307832
